One series addresses melittin (Apis mellifera, UniProt P01501). The series is described as follows: cell-based. As to conditions: read-out: IC50, inhibition of melittin (converted).
Series [1] deals with Human red blood cells (RBCs). The series is described as follows: Hemolytic activity. The class given is cell-based. As to conditions: Tables 18-21. The protocol: Each assay was carried out in 96-well culture tissue plates. Four wells per plate contain 125 μl of a non-peptide positive control (1% Triton in de-ionized water), and four wells per plate contain 125 μl of a control blank, phosphate buffered saline (PBS). The hemolytic peptide melittin was used as comparative control. The controls served to detect possible contamination and to calculate the percent hemolysis of each peptide. Human red blood cells (RBCs) were washed with PBS and centrifuged to separate them from the serum. The cells were then resuspended in PBS to a final suspension of 0.5% RBC. 125 μl of this suspension was added to the peptides and controls solution. The release of hemoglobin resulting from the cell lysis was determined by measuring the OD at 414 nm of 100 μl of the supernatant.

Square brackets hold non-standard residues; d marks the D form. Ends that are not written are not given here. Peptide text beside a SMILES is read from it. * marks the point of attachment. Phe(4-NO2) = N[C@@H](Cc1ccc([N+](=O)[O-])cc1)C(=O)O; Fmoc = O=C(OCC1c2ccccc2-c2ccccc21)*

Sequence of melittin (P01501 44-69 limits assumed): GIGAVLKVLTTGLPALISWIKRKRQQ

In general, IC50 refers to the concentration that gives 50% inhibition. For Ac-IVIFFR-NH2 [Ac-IVIFFR-NH2], the IC50 at melittin is more than 299 µM.

For Ac-IVILTH-NH2 [Ac-IVILTH-NH2], the IC50 on melittin was 76.1 µM.

In the case of Ac-IVILTW-NH2 [Ac-IVILTW-NH2], the IC50 at melittin was 14 µM.

Turning to Ac-IVIFFF-NH2 [Ac-IVIFFF-NH2], at melittin, the IC50 is 205 µM.

Regarding Ac-IVIFFG-NH2 [Ac-IVIFFG-NH2], the IC50 at melittin was 29.9 µM.

Regarding NDEIVF-NH2 [NDEIVF-NH2], the IC50 on melittin was 853 µM.

For the compound Ac-FIIWCE-NH2 [Ac-FIIWCE-NH2], at melittin, the concentration for half-maximal inhibition (IC50) is 4 µM.

As to Ac-FIIYFE-NH2 [Ac-FIIYFE-NH2], on melittin, the IC50 was 7.8 µM.

With Ac-FIIYFK-NH2 [Ac-FIIYFK-NH2], the concentration for half-maximal inhibition (IC50) on melittin is 419 µM.

With Ac-IVIFFA-NH2 [Ac-IVIFFA-NH2], the IC50 on melittin is 33.3 µM.

Regarding Ac-IVILTY-NH2 [Ac-IVILTY-NH2], at melittin, the IC50 was 23.6 µM.

In the case of Ac-IVILTM-NH2 [Ac-IVILTM-NH2], the IC50 at melittin was 12.3 µM.

As to Ac-IDIYFK-NH2 [Ac-IDIYFK-NH2], the IC50 at melittin is 918 µM.

With Ac-IVILTN-NH2 [Ac-IVILTN-NH2], the IC50 on melittin is 19.6 µM.

Ac-IVIFFY-NH2 [Ac-IVIFFY-NH2]: the IC50 on melittin was 24.9 µM.

For Ac-FQIYCE-NH2 [Ac-FQIYCE-NH2], at melittin, the IC50 is 16.6 µM.

Take Ac-FDIYFE-NH2 [Ac-FDIYFE-NH2]: the half-maximal inhibitory concentration (IC50) at melittin was 1050 µM.

For Ac-IVILLQ-NH2 [Ac-IVILLQ-NH2], at melittin, the IC50 is 12.2 µM.

In the case of Ac-IDIWCE-NH2 [Ac-IDIWCE-NH2], the IC50 on melittin is 978 µM.

In the case of Ac-IVIFFQ-NH2 [Ac-IVIFFQ-NH2], the IC50 on melittin is 32.2 µM.

Turning to Ac-IVIFFW-NH2 [Ac-IVIFFW-NH2], at melittin, the IC50 is 18.5 µM.

On to Ac-IVIFFS-NH2 [Ac-IVIFFS-NH2], for which the IC50 at melittin was 27.4 µM.

In the case of DDEITF-NH2 [DDEITF-NH2], the IC50 at melittin was 1630 µM.

Take Ac-IVIFFH-NH2 [Ac-IVIFFH-NH2]: the IC50 at melittin was 36.8 µM.

For the compound Ac-FIIWFK-NH2 [Ac-FIIWFK-NH2], the IC50 on melittin is 1450 µM.

With Ac-IVILLM-NH2 [Ac-IVILLM-NH2], the IC50 on melittin is 27 µM.

As for Ac-IVILTQ-NH2 [Ac-IVILTQ-NH2], the IC50 at melittin is 15.1 µM.

Take Ac-IVIFFI-NH2 [Ac-IVIFFI-NH2]: the IC50 at melittin is 105 µM.

Regarding Ac-IVIFFT-NH2 [Ac-IVIFFT-NH2], the IC50 at melittin was 30.8 µM.

Ac-IVILLP-NH2 [Ac-IVILLP-NH2]: the IC50 on melittin is 36.7 µM.

With Ac-IVILTR-NH2 [Ac-IVILTR-NH2], the IC50 on melittin is more than 331 µM.

With Ac-IVIFFC-NH2 [Ac-IVIFFC-NH2], the IC50 at melittin is 92.1 µM.

Regarding Ac-IDIWCK-NH2 [Ac-IDIWCK-NH2], the IC50 at melittin was 130 µM.

In the case of Ac-IVILTP-NH2 [Ac-IVILTP-NH2], at melittin, the IC50 is 70.4 µM.

On to Ac-MILWIE-NH2 [Ac-MILWIE-NH2], for which, on melittin, the IC50 is 13 µM.

Turning to Ac-IVILTA-NH2 [Ac-IVILTA-NH2], the IC50 at melittin was 19.4 µM.

Take NEEIVF-NH2 [NEEIVF-NH2]: the IC50 on melittin was 1210 µM.

For Ac-IIIYCE-NH2 [Ac-IIIYCE-NH2], the IC50 on melittin was 15.1 µM.

As to Ac-IVILTE-NH2 [Ac-IVILTE-NH2], the IC50 at melittin is 33 µM.

As to Ac-IIIWFE-NH2 [Ac-IIIWFE-NH2], the IC50 at melittin was 6.27 µM.

With Ac-IVIFFP-NH2 [Ac-IVIFFP-NH2], the IC50 at melittin was 49 µM.

For the compound Ac-FQIYFE-NH2 [Ac-FQIYFE-NH2], the IC50 at melittin is 21.4 µM.

As for Ac-IQIWFE-NH2 [Ac-IQIWFE-NH2], the concentration for half-maximal inhibition (IC50) at melittin was 24 µM.

In the case of `NCCCC[C@H](NC(=O)OCC1c2ccccc2-c2ccccc21)C(=O)N[C@@H](Cc1c[nH]c2ccccc12)C(=O)N[C@@H](CCCCN)C(=O)N[C@@H](Cc1c[nH]cn1)C(N)=O` [(KFmoc)WKH-NH2] (Fmoc-KWKH-NH2), the “HD50 (concentration necessary to lyse 50% of the cells)” value in series [1] is 312 µg/mL.

Take `CC[C@@H](C)[C@@H](NC(=O)[C@@H](CS)NC(=O)[C@H](CCCCN)NC(=O)OCC1c2ccccc2-c2ccccc21)C(=O)N[C@@H](Cc1ccc([N+](=O)[O-])cc1)C(N)=O` [(KFmoc)ci(NO2 F)-NH2] (Fmoc-K[dC][dI][Phe(4-NO2)]-NH2): in series [1], the “HD50 (concentration necessary to lyse 50% of the cells)” value was 363 µg/mL.
